The supplement of paper PMC10307832

Columns and labels:
Test in all cases: relative viability (nuclei count vs DMSO), 5 days (fraction); higher = more cells survive
[1] = compound: OCc1c[nH]c2ccccc12 [Indole-3-carbinol] + CC(=O)c1c(C)c2cnc(Nc3ccc(N4CCNCC4)cn3)nc2n(C2CCCC2)c1=O [Palbociclib] (partner 0.5 µM)
Outline: (§1)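 Cells from lung cancer lines were seeded into 1536-well plates and, one day later, dosed by pin tool. Treatments were either a single drug or a fixed dose of an anchor drug with five library-drug doses (not always all listed) in √10 steps. After 5 days, nuclei were stained in a one-step fixation (final 0.05% Triton X-100, 1% formaldehyde, 1 ug/ml Hoechst) and counted on 4× images, and relative viability is the treated-to-vehicle nuclei ratio, as the median of duplicate plates.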

[2] = compound: OCc1c[nH]c2ccccc12 [Indole-3-carbinol] + CC(C)C[C@H](NC(=O)[C@H](Cc1ccccc1)NC(=O)c1cnccn1)B(O)O [Bortezomib] (partner 0.002 µM)
Outline: as §1

[3] = compound: OCc1c[nH]c2ccccc12 [Indole-3-carbinol] + Nc1nc2[nH]cc(CCc3ccc(C(=O)N[C@@H](CCC(=O)O)C(=O)O)cc3)c2c(=O)[nH]1 [Pemetrexed] (partner 0.2 µM)
Outline: as §1

[4] = compound: OCc1c[nH]c2ccccc12 [Indole-3-carbinol] + Cc1cc(Nc2cc(N3CCN(C)CC3)nc(Sc3ccc(NC(=O)C4CC4)cc3)n2)n[nH]1 [Tozasertib] (partner 0.1 µM)
Outline: as §1

[5] = compound: OCc1c[nH]c2ccccc12 [Indole-3-carbinol] + COc1cccc2cc(-c3nc([C@H]4CC[C@H](C(=O)O)CC4)n4ncnc(N)c34)[nH]c12 [OSI-027] (partner 0.5 µM)
Outline: as §1

Cell Line | relative viability ([1]; first compound 0.253 µM) | relative viability ([1]; first compound 0.8 µM) | relative viability ([1]; first compound 2.53 µM) | relative viability ([1]; first compound 8 µM) | relative viability ([2]; first compound 0.253 µM) | relative viability ([2]; first compound 0.8 µM) | relative viability ([2]; first compound 2.53 µM) | relative viability ([2]; first compound 8 µM) | relative viability ([3]; first compound 0.253 µM) | relative viability ([3]; first compound 0.8 µM) | relative viability ([3]; first compound 2.53 µM) | relative viability ([3]; first compound 8 µM) | relative viability ([4]; first compound 0.253 µM) | relative viability ([4]; first compound 0.8 µM) | relative viability ([4]; first compound 2.53 µM) | relative viability ([4]; first compound 8 µM) | relative viability ([5]; first compound 0.253 µM) | relative viability ([5]; first compound 0.8 µM) | relative viability ([5]; first compound 2.53 µM) | relative viability ([5]; first compound 8 µM)
HARA | 0.303 | 0.249 | 0.281 | 0.232 | 1.2 | 1.06 | 1.11 | 1.06 | 0.267 | 0.239 | 0.243 | 0.242 | 0.119 | 0.125 | 0.12 | 0.179 | 0.572 | 0.436 | 0.597 | 0.556
EMC-BAC-2 | 0.507 | 0.519 | 0.507 | 0.489 | 0.994 | 1.01 | 1.08 | 1.02 | 0.393 | 0.441 | 0.439 | 0.448 | 0.267 | 0.309 | 0.25 | 0.259 | 0.32 | 0.356 | 0.386 | 0.359
PC-14 | 0.538 | 0.509 | 0.541 | 0.462 | 0.878 | 0.971 | 0.85 | 0.874 | 0.14 | 0.127 | 0.13 | 0.146 | 0.578 | 0.585 | 0.633 | 0.554 | 0.756 | 0.828 | 0.873 | 0.706
NCI-H520 | 0.225 | 0.183 | 0.21 | 0.217 | 0.543 | 0.613 | 0.498 | 0.563 | 0.671 | 0.687 | 0.69 | 0.757 | 0.445 | 0.46 | 0.417 | 0.457 | 0.25 | 0.189 | 0.258 | 0.274
NCI-H1755 | 0.489 | 0.444 | 0.487 | 0.423 | 1.02 | 0.939 | 0.976 | 0.995 | 0.422 | 0.436 | 0.435 | 0.386 | 0.642 | 0.592 | 0.647 | 0.535 | 0.761 | 0.664 | 0.822 | 0.699
NCI-H2087 | 0.193 | 0.278 | 0.27 | 0.262 | 0.815 | 0.967 | 0.963 | 0.678 | 0.706 | 0.703 | 0.705 | 0.63 | 0.214 | 0.294 | 0.283 | 0.296 | 0.435 | 0.644 | 0.571 | 0.513
NCI-H2023 | 0.396 | 0.469 | 0.334 | 0.375 | 0.903 | 1.02 | 0.887 | 0.939 | 0.245 | 0.269 | 0.252 | 0.258 | 0.256 | 0.355 | 0.366 | 0.362 | 0.406 | 0.405 | 0.438 | 0.398
CAL-12T | 0.443 | 0.517 | 0.573 | 0.398 | 0.983 | 1 | 0.842 | 0.819 | 1.28 | 1.44 | 1.12 | 1.24 | 0.291 | 0.351 | 0.335 | 0.278 | 0.709 | 0.775 | 0.62 | 0.623
NCI-H2085 | 0.469 | 0.492 | 0.451 | 0.439 | 1.07 | 1.15 | 1.14 | 0.967 | 0.965 | 0.927 | 0.932 | 0.758 | 0.848 | 0.914 | 0.887 | 0.79 | 0.76 | 0.884 | 0.747 | 0.684
NCI-H650 | 0.311 | 0.338 | 0.352 | 0.307 | 0.955 | 0.748 | 0.83 | 0.746 | 0.959 | 0.851 | 0.937 | 1.04 | 0.743 | 0.767 | 0.805 | 0.681 | 0.559 | 0.512 | 0.482 | 0.482
LCLC-97TM1 | 0.237 | 0.266 | 0.225 | 0.236 | 0.651 | 0.686 | 0.778 | 0.447 | 0.167 | 0.197 | 0.185 | 0.154 | 0.324 | 0.299 | 0.235 | 0.251 | 0.381 | 0.527 | 0.386 | 0.668
NCI-H2126 | 0.299 | 0.366 | 0.362 | 0.34 | 1.11 | 1.11 | 1.1 | 1.1 | 0.664 | 0.746 | 0.624 | 0.651 | 0.849 | 0.876 | 0.793 | 0.866 | 0.706 | 0.745 | 0.65 | 0.791
201T | 0.357 | 0.396 | 0.356 | 0.34 | 1.17 | 0.996 | 1.11 | 1.1 | 0.345 | 0.354 | 0.362 | 0.322 | 0.958 | 0.978 | 1.02 | 0.969 | 0.895 | 0.765 | 0.748 | 0.718
NCI-H1915 | 0.5 | 0.521 | 0.532 | 0.486 | 0.968 | 0.881 | 0.973 | 0.977 | 0.466 | 0.527 | 0.513 | 0.511 | 0.409 | 0.459 | 0.449 | 0.464 | 0.571 | 0.611 | 0.623 | 0.563
BEN | 0.495 | 0.445 | 0.512 | 0.485 | 0.91 | 0.729 | 0.966 | 0.727 | 0.75 | 0.704 | 0.757 | 0.905 | 0.463 | – | 0.479 | 0.554 | 0.275 | 0.271 | 0.33 | 0.331
NCI-H2347 | 0.426 | 0.471 | 0.419 | 0.407 | 1.2 | – | 0.926 | 0.868 | 0.425 | 0.415 | 0.437 | 0.41 | 0.614 | 0.54 | 0.571 | 0.538 | 0.429 | 0.374 | 0.287 | 0.364
